One data set can be described thus: in vivo. The conditions noted are these: male, beagle, dog, plasma, intravenous, 0.143 mg/kg.
The conditions of data set [1]: cited from earlier work.

The source of these data is patent US11904049B2, “Pharmaceutical formulation” (priority 2017, dated 2024).

The structures appear in SMILES notation. Where a name gives a salt, the structure may show the parent alone.

Procedure for in vivo: The three beagle dogs used in the experiment were male, non-naïve beagle dogs, weighing 12.7-13.9 kg, 37-39.5 months old, from CEDS (France) at the first session.
At each test session, serial blood samples were collected in all dogs at 12 time points: pre-dose, and then 0.083 (5 min), 0.167 (10 min), 0.33 (20 min), 0.5 (30 min), 1, 2, 3, 4, 5, 6 and 8 hours after the initial application, giving therefore a total of 180 blood samples. At each time-point, a blood sample of 2 mL was collected by puncture in a jugual vein in conscious animals using an identified vacuum tube containing K2-EDTA (Greiner Bio-One ref #454047) for plasma preparation. Immediately after collection, the blood sample was gently agitated and stored on ice until centrifugation (within 30 minutes of sampling). The blood samples were centrifuged at 4° C., at 1500 g, for 10 minutes. The entire resultant plasma was immediately transferred into an identified 1 mL polypropylene screw capped cryotube (1 aliquot of at least 800 μL of plasma) maintained on ice. The tubes were stored upright at approximately −20° C. until shipment to the test site, ABS Laboratories (BioPark, Broadwater Road, Welwyn Garden City, Herts AL7 3AX), for analysis by HPLC-MS (high performance liquid chromatography-mass spectrometry) using a standard separation protocol.
Individual concentration (C) versus time (T) curves were analysed for standard pharmacokinetic (PK) parameters using non-compartmental analysis using the SimBiology package of MatLab, Version 2015b.

Usually AUC(0-t) stands for exposure summed from dosing to a finite time, without extrapolation to infinity. Low values mean less exposure, high ones more exposure. For orientation: Cmax means the highest concentration seen after dosing. In general, Tmax refers to the time from dosing to the highest level. In the case of `C=CCN1CC[C@]23c4c5ccc(O)c4O[C@H]2C(=O)CC[C@@]3(O)[C@H]1C5` [Intravenous, Naloxone HCl], in “in vivo”, the AUC(0-t) is 20.8 ng·h/mL, the Cmax was determined as 29.4 ng/mL, the Tmax is 6.7 min and the concentration at 5 min stood at 28.2 ng/mL.

Usually pKa stands for the pH at which an ionisable group is half protonated. With `C=CCN1CC[C@]23c4c5ccc(O)c4O[C@H]2C(=O)CC[C@@]3(O)[C@H]1C5` [naloxone], the “strongest basic pKa” value in data set [1] is 10.07. Also, in data set [1] (naloxone as a base), the pKa was 7.84.
